Experimental findings from patent US10351522B2, “Sulfonamide derivative and pharmaceutically acceptable acid addition salt thereof” (UNIVERSITY OF TSUKUBA, priority 2015, dated 2019) are described below.

For one assay, the target named is T1, human OX1R (Homo sapiens, UniProt O43613).
T1 construct: expressed in transfected cells; host or cells: CHO (Chinese hamster ovary) cells, line CHOOX1R, co-expressing NFAT-luciferase
T1 sequence (O43613 1-425): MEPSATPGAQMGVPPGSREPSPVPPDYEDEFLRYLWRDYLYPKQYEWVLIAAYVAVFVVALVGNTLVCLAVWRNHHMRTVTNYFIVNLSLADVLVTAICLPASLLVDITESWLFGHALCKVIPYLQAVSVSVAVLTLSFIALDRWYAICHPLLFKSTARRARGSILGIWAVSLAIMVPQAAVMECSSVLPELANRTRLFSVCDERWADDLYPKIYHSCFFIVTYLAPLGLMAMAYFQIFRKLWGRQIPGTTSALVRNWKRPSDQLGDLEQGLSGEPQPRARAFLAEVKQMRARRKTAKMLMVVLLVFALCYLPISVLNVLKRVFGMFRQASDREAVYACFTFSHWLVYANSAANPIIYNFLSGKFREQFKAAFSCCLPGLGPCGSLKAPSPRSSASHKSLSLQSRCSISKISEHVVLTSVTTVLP
In words: Agonist activity against OX1R: intracellular calcium (Fura-2AM, FDSS7000) in CHOOX1R cells. It is filed as cell-based. The following applies: relative to orexin-A as full agonist (100%); for Emax at 0.1 µM / Emax at 1 µM / Emax at 10 µM: read-out: Response (%) OX1R. A digest of the protocol:
(§1)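 Response is agonist activity at 0.1, 1.0 or 10 μM compound as a percentage of the orexin-A full-agonist maximum, taken from 340/380 nm Fura-2 ratio changes. Each cell line is CHO constitutively expressing human OX1R or OX2R with NFAT-luciferase, dye-loaded 60 min with 5 μM Fura-2AM; compound range 10^−7–10^−5 M, 1% DMSO.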

A further assay deals with T2, human OX2R (Homo sapiens, UniProt O43614).
T2 construct: expressed in transfected cells; host or cells: CHO (Chinese hamster ovary) cells, line CHOOX2R, co-expressing NFAT-luciferase
T2 sequence (O43614 1-444): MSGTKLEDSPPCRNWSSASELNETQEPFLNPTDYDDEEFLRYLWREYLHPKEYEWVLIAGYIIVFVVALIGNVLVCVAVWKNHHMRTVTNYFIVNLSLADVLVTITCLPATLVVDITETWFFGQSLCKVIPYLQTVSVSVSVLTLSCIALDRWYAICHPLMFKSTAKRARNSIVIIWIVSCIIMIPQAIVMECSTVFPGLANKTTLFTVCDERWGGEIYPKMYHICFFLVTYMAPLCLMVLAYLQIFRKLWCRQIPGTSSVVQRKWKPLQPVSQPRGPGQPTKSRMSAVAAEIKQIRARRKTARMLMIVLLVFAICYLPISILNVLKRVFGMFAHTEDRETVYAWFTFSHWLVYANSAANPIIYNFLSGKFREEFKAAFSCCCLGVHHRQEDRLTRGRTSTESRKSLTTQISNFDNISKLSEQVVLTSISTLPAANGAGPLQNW
In words: Agonist activity against OX2R: intracellular calcium (Fura-2AM, FDSS7000) in CHOOX2R cells. The format is cell-based. The following applies: relative to orexin-A as full agonist (100%). The gist of the method:
as §1

In a further assay the test system is C57BL/6 wild-type mouse. As to the kind of experiment: Awakening effect on wild-type mouse by light period intraventricular administration (EEG/EMG hypnogram). The following applies: 10 nmol intraventricular at ZT6 (light period), hypnogram for 3 hr. The format is in vivo. The source says: Awakening Effect on Wild-Type Mouse by Light Period Intraventricular Administration of the Compound of the Present Invention
As the experiment animal, C57BL/6 lineage wild-type mouse (male) was used. The mice before and after 9-week-old (±1 week) underwent surgery for embedding electroencephalogram electrodes into the skull (Bregma: X=1.5; Y=0.6, Lambda: X=1.5; Y=0) and inserting electromyogram electrodes into the trapezius muscle under isoflurane anesthesia. The mice for intraventricular administration also underwent cannula embedding into lateral cerebral ventricle (Bregma: X=−0.9; Y=−0.3). From two weeks thereafter, the administration and electroencephalogram measurement were started. The experiment was conducted under a light-dark cycle environment in which the light period started at 9 (ZT0) and the dark period started at 21 (ZT12).
The test compound (compound of Example 40) (10 nmol; dissolved in 5% chromophore-containing saline) (5 μl) was injected at ZT6 into the lateral cerebral ventricle of wild-type mice under isoflurane anesthesia through cannula by using a microsyringe pump at a flow rate of 0.5 μl/min, and electroencephalogram and electromyogram was measured thereafter. The administration was started with 5% chromophore-containing saline (Vehicle) as a control, and then the test compound was administered. […]

SMILES strings stand for the structures. Like-named read-outs stand apart in the source and are kept apart here. Where only a bound is given, the exact number is not on record here.

For the compound `COc1ccc(-c2cccc(C(=O)N(C)C)c2)cc1S(=O)(=O)Nc1cccc(NC(=O)Nc2cccc(N(C)C)c2)c1` [Example 40, 3′-(N-(3-(3-(3-(dimethylamino)phenyl)ureido)phenyl)sulfamoyl)-4′-methoxy-N,N-dimethyl-[1,1′-biphenyl]-3-carboxamide], the Emax at 0.1 µM at human OX1R (0.1 μM test compound) was < 5%. The Emax at 1 µM at human OX1R (1.0 μM test compound) is < 5%. Also, at human OX1R (10 μM test compound), the Emax at 10 µM was < 5%. Besides, the “Response (%) OX2R” value at human OX2R (0.1 μM test compound) turned out to be 77%; on human OX2R (1.0 μM test compound), 60%; at human OX2R (10 μM test compound), 52%. The “conscious time compared to Vehicle administration” value in the assay with C57BL/6 wild-type mouse is “increased”.
`C=CC(=O)NCCN(C(=O)C=C)c1cccc(NS(=O)(=O)c2cc(-c3cccc(C(=O)N(C)C)c3)ccc2OC)c1` [Example 94, 3′-(N-(3-(N-(2-acrylamidoethyl)acrylamido)phenyl)sulfamoyl)-4′-methoxy-N,N-dimethyl-[1,1′-biphenyl]-3-carboxamide]: the Emax at 0.1 µM at human OX1R (test compound 0.1 μM) was < 5%. Moreover, the Emax at 1 µM at human OX1R (test compound 1.0 μM) was < 5%. In addition, the Emax at 10 µM at human OX1R (test compound 10 μM) is < 5%. Moreover, the “Response (%) OX2R” value is recorded as <5% at human OX2R (test compound 0.1 μM), <5% at human OX2R (test compound 1.0 μM) and 46% on human OX2R (test compound 10 μM).
Regarding `COc1ccc(-c2cccc(C(=O)N(C)C)c2)cc1S(=O)(=O)Nc1cccc(NCc2ccccc2C)c1` [Example 24], the “Response (%) OX1R” value at human OX1R (0.1 μM test compound) is reported as <5%; at human OX1R (1.0 μM test compound), <5%; on human OX1R (10 μM test compound), 6%. Besides, the results for the “Response (%) OX2R” value on human OX2R (0.1 μM test compound), on human OX2R (1.0 μM test compound) and at human OX2R (10 μM test compound) were <5%, 72% and 93%, respectively.
Consider `CCN(Cc1ccccc1)C(=O)c1ccc(OC)c(S(=O)(=O)Nc2cccc(NC(=O)Nc3ccc(N(C)C)cc3)c2)c1` [Example 110], for which the “Response (%) OX1R” value at human OX1R (test compound 0.1 μM), on human OX1R (test compound 1.0 μM) and at human OX1R (test compound 10 μM) was <5% in each case. The “Response (%) OX2R” value at human OX2R (test compound 0.1 μM) is reported as 38%; at human OX2R (test compound 1.0 μM), 86%; on human OX2R (test compound 10 μM), 109%.
As for `COc1ccc(-c2cccc(C(=O)N(C)C)c2)cc1S(=O)(=O)Nc1cccc(NC(=O)Nc2cccc(NC(=O)OC(C)(C)C)c2)c1` [Example 62], the “Response (%) OX1R” value on human OX1R (0.1 μM test compound) came to 9%; on human OX1R (1.0 μM test compound), 8%; at human OX1R (10 μM test compound), 13%. Besides, the figures for the “Response (%) OX2R” value on human OX2R (0.1 μM test compound), at human OX2R (1.0 μM test compound) and on human OX2R (10 μM test compound) were 6%, 7% and 9%, respectively.
On to `COc1ccc(-c2cccc(C(=O)N(C)C)c2)cc1S(=O)(=O)Nc1cccc(NC(=O)Nc2ccccc2Br)c1` [Example 43], for which the “Response (%) OX1R” value is <5% at human OX1R (0.1 μM test compound), <5% on human OX1R (1.0 μM test compound) and 10% at human OX1R (10 μM test compound). The “Response (%) OX2R” value at human OX2R (0.1 μM test compound) was 102%; on human OX2R (1.0 μM test compound), 105%; on human OX2R (10 μM test compound), 104%.
Turning to `COc1ccc(-c2cccc(C(=O)N(C)C)c2)cc1S(=O)(=O)Nc1cccc(NC(=O)c2ccncc2)c1` [Example 4], the figures for the “Response (%) OX1R” value at human OX1R (0.1 μM test compound), on human OX1R (1.0 μM test compound) and at human OX1R (10 μM test compound) were 10%, 8% and <5%, respectively. Moreover, the results for the “Response (%) OX2R” value at human OX2R (0.1 μM test compound), at human OX2R (1.0 μM test compound) and on human OX2R (10 μM test compound) were <5%, <5% and 16%, respectively.
In the case of `COc1ccc(-c2cccc(C(=O)N(C)C)c2)cc1S(=O)(=O)Nc1cccc(NC(=O)Nc2ccc(NC(=O)OC(C)(C)C)cc2)c1` [Example 72], the “Response (%) OX1R” value on human OX1R (0.1 μM test compound), at human OX1R (1.0 μM test compound) and at human OX1R (10 μM test compound) was <5% throughout. Besides, the “Response (%) OX2R” value came to 7% on human OX2R (0.1 μM test compound), 59% at human OX2R (1.0 μM test compound) and 79% at human OX2R (10 μM test compound).
Regarding `COc1ccc(-c2cccc(C(=O)N(C)C)c2)cc1S(=O)(=O)Nc1cccc(NC(=O)Nc2ccccc2C)c1` [Example 51], the “Response (%) OX1R” value on human OX1R (0.1 μM test compound) is <5%; at human OX1R (1.0 μM test compound) it was 36%; on human OX1R (10 μM test compound) it was 67%. The figures for the “Response (%) OX2R” value at human OX2R (0.1 μM test compound), at human OX2R (1.0 μM test compound) and at human OX2R (10 μM test compound) were 93%, 85% and 88%, respectively.
